Measured values from patent US20260078119A1, “DEGRADER COMPOUNDS AND USES THEREOF” (Bristol-Myers Squibb Company, priority 2024, published 2026).

Biological target: T1, FAK (Homo sapiens, UniProt Q05397)
T1 construct: homozygous knock-in of a HiBiT tag (Promega Corporation, Madison, WI) to the C-terminus of the FAK gene in its natural genomic locus; endogenous in cells; host or cells: JHH-4-FAK-HiBiT clone d01 (CRISPR-Cas9 knock-in at the endogenous locus)
Assay: FAK-HiBiT Degradation Assay
Type: cell-based
Settings: for FAK HiBiT Ymin: lower limit of the four parameter fit (value A), Ymax derived using DMSO control, JHH-4-FAK-HiBiT cells, two hours; for DC50: read-out: FAK HiBiT EC50
Text: To generate JHH-4-FAK-HiBiT cells for the FAK degradation assay, JHH-4 cells (Japanese Collection of Research Biosources Cell Bank, Japan) were transfected with ribonucleoprotein reagents to introduce, by CRISPR-Cas9 editing, the homozygous knock-in of a HiBiT tag (Promega Corporation, Madison, WI) to the C-terminus of the FAK gene in its natural genomic locus. Clonal cell populations were established by expanding single cells after CRISPR-Cas9 editing, with a clonal cell line named JHH-4-FAK-HiBiT clone d01 confirmed by next generation DNA sequencing to contain the expected HiBiT edited FAK gene and was selected for FAK degradation screening. Cells were selected and maintained in complete DMEM media (DMEM, 10% Heat Inactivated FBS, and Non-Essential Amino Acids at 37° C. and 5% CO2). Cells were passaged every 3-4 days by reseeding 0.5×10^6 cells in a T75 flask.
Cells were dispensed into 384-well white plates (Corning #3570, NY) that were pre-spotted with compounds using an acoustic dispenser (Echo acoustic transfer system, Beckman Coulter Life Sciences, Carlsbad, CA) as a 10-point dose response curve with a 3-fold dilution starting at 1 μM and including a DMSO control. Twenty-five microliters of media containing 2000 JHH-4-FAK-HiBiT Clone d01 cells was dispensed per well. Assay plates were incubated at 37° C. with 5% CO2 for two hours. After incubation, 25 μL of Nano-Glo HiBiT Lytic Reagent Working Solution (Promega Corporation, Madison, WI) was added to each well and incubated at room temperature for 10 minutes protected from light. After 10 minutes, luminescence was read on a PHERAstar luminometer (BMG Labtech, Cary, NC).
To determine the half-maximal effective concentration (EC50) values for FAK-HiBIT degradation, a four parameter logistic model was used: (Sigmoidal Dose-Response Model)(FIT=(A+((B−A)/1+((C/x)^D)))) where C is the inflection point (EC50), D is the Hill slope, and A and B are the low and high limits of the fit respectively). The lower limit of the fit (value A) is referred to as Ymin. The maximum limit constraint, Ymax, was derived using DMSO control. The curves were processed and evaluated using Dotmatics Atlas (Insightful Science, LLC, Boston, MA).

[1] = JHH-4-FAK-HiBiT clone d01 cells, two hours incubation, 10-point dose response, 3-fold dilution starting at 1 μM, Nano-Glo HiBiT luminescence

T1 sequence (Q05397 whole entry): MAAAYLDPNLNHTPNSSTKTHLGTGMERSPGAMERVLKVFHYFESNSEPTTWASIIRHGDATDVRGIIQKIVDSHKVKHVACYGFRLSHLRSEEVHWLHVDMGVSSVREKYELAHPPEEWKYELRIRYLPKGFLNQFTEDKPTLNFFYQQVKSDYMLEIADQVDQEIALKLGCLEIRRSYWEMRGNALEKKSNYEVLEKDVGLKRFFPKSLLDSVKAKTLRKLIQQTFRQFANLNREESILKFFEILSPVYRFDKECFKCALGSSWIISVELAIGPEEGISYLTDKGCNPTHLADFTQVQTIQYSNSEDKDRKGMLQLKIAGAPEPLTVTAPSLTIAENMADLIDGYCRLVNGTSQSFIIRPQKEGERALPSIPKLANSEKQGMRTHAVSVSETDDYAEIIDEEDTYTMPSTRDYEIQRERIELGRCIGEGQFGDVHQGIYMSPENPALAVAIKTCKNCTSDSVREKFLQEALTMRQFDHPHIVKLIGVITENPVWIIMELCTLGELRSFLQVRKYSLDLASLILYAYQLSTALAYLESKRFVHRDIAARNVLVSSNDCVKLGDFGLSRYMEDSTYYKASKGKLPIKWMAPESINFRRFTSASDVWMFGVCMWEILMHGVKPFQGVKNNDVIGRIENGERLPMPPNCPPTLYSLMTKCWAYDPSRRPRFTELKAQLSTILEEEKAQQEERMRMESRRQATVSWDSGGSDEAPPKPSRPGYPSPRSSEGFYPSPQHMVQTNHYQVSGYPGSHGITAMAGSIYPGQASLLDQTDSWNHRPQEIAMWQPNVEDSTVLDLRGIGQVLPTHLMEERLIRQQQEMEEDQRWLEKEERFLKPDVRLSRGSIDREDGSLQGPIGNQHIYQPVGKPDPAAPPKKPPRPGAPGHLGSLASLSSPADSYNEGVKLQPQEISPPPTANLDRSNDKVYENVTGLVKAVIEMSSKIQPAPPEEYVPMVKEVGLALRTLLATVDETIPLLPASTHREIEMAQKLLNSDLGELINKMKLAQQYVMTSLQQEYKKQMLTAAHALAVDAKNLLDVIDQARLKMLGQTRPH

SMILES	EC50 [1] [nM]	FAK HiBiT Ymin	DC50 [1] [nM]
CN(C)c1cc(-c2ncc(C#N)cc2Cl)c2ccn(Cc3ccc4c(c3)CN(C3CCC(=O)NC3=O)C4=O)c2n1 (centres unmarked) [Example 13, 5-chloro-6-(6-(dimethylamino)-1-((2-(2,6-dioxopiperidin-3-yl)-1-oxoisoindolin-5-yl)methyl)-1H-pyrrolo[2,3-b]pyridin-4-yl)nicotinonitrile]	7.86	4.03	–
CN(C)c1cc(-c2ccc(C#N)cc2Cl)c2ncn(Cc3ccc4c(c3)CN(C3CCC(=O)NC3=O)C4=O)c2n1 (centres unmarked) [Example 18]	–	4.01	8.37
CN(C)c1nc(-c2ccc(C#N)cc2Cl)c2ccn(Cc3ccc4c(c3)CN(C3CCC(=O)NC3=O)C4=O)c2n1 (centres unmarked) [Example 27, 3-chloro-4-(2-(dimethylamino)-7-((2-(2,6-dioxopiperidin-3-yl)-1-oxoisoindolin-5-yl)methyl)-7H-pyrrolo[2,3-d]pyrimidin-4-yl)benzonitrile]	–	2.64	8.68
N#Cc1ccc(-c2cc(N3CCC3)nc3c2cnn3Cc2ccc3c(c2)CN(C2CCC(=O)NC2=O)C3=O)c(Cl)c1 (centres unmarked) [Example 58, 4-[6-(azetidin-1-yl)-1-{[2-(2,6-dioxopiperidin-3-yl)-1-oxo-2,3-dihydro-1H-isoindol-5-yl]methyl}-1H-pyrazolo[3,4-b]pyridin-4-yl]-3-chlorobenzonitrile]	–	7.90	3.43
Cc1nn(Cc2ccc3c(c2)CN(C2CCC(=O)NC2=O)C3=O)c2nc(N3CCC3)cc(-c3ccc(C#N)cc3Cl)c12 (centres unmarked) [Example 60, 4-[6-(azetidin-1-yl)-1-{[2-(2,6-dioxopiperidin-3-yl)-1-oxo-2,3-dihydro-1H-isoindol-5-yl]methyl}-3-methyl-1H-pyrazolo[3,4-b]pyridin-4-yl]-3-chlorobenzonitrile]	–	9.10	3.57
N#Cc1ccc(-c2cc(N3CCC3)nc3c2cnn3Cc2ccc3c(c2)CN(C2CCC(=O)NC2=O)C3=O)c(F)c1 (centres unmarked) [Example 62, 4-[6-(azetidin-1-yl)-1-{[2-(2,6-dioxopiperidin-3-yl)-1-oxo-2,3-dihydro-1H-isoindol-5-yl]methyl}-1H-pyrazolo[3,4-b]pyridin-4-yl]-3-fluorobenzonitrile]	–	12.88	3.92
CC(C)Nc1cc(-c2ccc(C#N)cc2Cl)c2cnn(Cc3ccc4c(c3)CN(C3CCC(=O)NC3=O)C4=O)c2n1 (centres unmarked) [Example 68, 3-chloro-4-(1-{[2-(2,6-dioxopiperidin-3-yl)-1-oxo-2,3-dihydro-1H-isoindol-5-yl]methyl}-6-[(propan-2-yl)amino]-1H-pyrazolo[3,4-b]pyridin-4-yl)benzonitrile]	–	15.10	5.19
N#Cc1ccc(-c2cc(N3CCC3)nc3c2c(Cl)nn3Cc2ccc3c(c2)CN(C2CCC(=O)NC2=O)C3=O)c(Cl)c1 (centres unmarked) [Example 70, 4-[6-(azetidin-1-yl)-3-chloro-1-{[2-(2,6-dioxopiperidin-3-yl)-1-oxo-2,3-dihydro-1H-isoindol-5-yl]methyl}-1H-pyrazolo[3,4-b]pyridin-4-yl]-3-chlorobenzonitrile]	–	13.38	5.6
N#Cc1ccc(-c2cc(N3CC(F)C3)nc3c2cnn3Cc2ccc3c(c2)CN(C2CCC(=O)NC2=O)C3=O)c(F)c1 (centres unmarked) [Example 71, 4-(1-{[2-(2,6-dioxopiperidin-3-yl)-1-oxo-2,3-dihydro-1H-isoindol-5-yl]methyl}-6-(3-fluoroazetidin-1-yl)-1H-pyrazolo[3,4-b]pyridin-4-yl)-3-fluorobenzonitrile]	–	11.11	5.67
N#Cc1cnc(-c2cc(N3CCC3)nc3c2cnn3Cc2ccc3c(c2)CN(C2CCC(=O)NC2=O)C3=O)c(F)c1 (centres unmarked) [Example 84, 6-[6-(azetidin-1-yl)-1-{[2-(2,6-dioxopiperidin-3-yl)-1-oxo-2,3-dihydro-1H-isoindol-5-yl]methyl}-1H-pyrazolo[3,4-b]pyridin-4-yl]-5-fluoropyridine-3-carbonitrile]	–	19.19	10.3
